Test results reported in US8114408B2 (priority 2007, dated 2012).

Tested on: mice
Conditions: mouse, in vivo, sc

How did the “immune response in immunized mice (ELISA, FIG. 2)” value turn out when 3 (RRQRRF) [compound 3] was run?
The value was “either an immune response occurred only in some individuals or a weak immune response was shown”.
